Test results: patent US20060228297A1, “Thorium-227 for use in radiotherapy of soft tissue disease” (priority 2003, published 2006)

Tested on: patients with metastases to the skeleton from breast or prostate cancer
Test: Phase IA/IB trials of ^223Ra, single and repeated injection, safety and tolerance (Example 9)
Format: in vivo, humans
Description: The experiment of Example 8 was carried out with dose metering calibrated to a high accuracy. Dose levels measured at 46, 93, 163, 213, and 250 kBq/kg of ^223Ra were given as single doses and a multiple-dose schedule was also introduced.
Thirty-one patients with metastases to the skeleton, 10 from breast- and 21 from prostate cancer, all, were enrolled in phase IA and phase IB trials. The prostate cancer patients were from 60 to 85 years and had body weights ranging from 50 to 120 kg. All of them had progressive disease considered hormone refractory. The breast cancer patients were from 40 to 70 years, with bodyweight from 50 to 95 kg. All of them were progressing second hormonal and/or chemotherapy. The primary objective was to evaluate the safety and tolerance of ^223Ra.
The follow up period was 8 weeks.
In the single injection trial the following average dose levels were used; 46, 93, 163, 213, and 250-kBq kg^−1 bodyweight (b.w.). Five patients were included at each dose level. Fifteen prostate- and 10 breast cancer patients were included.
In the repeated injection schedule, 6 patients, all with prostate cancer, were included. Three patients were scheduled to receive 5 doses, each of 50 kBq kg^−1 b.w. at three-weeks intervals, and three patients to receive 2 doses, each of 125 kBq kg−1 b.w. at six-weeks intervals.
Radium-223 was produced from ^227Ac/^227Th and purified using Ac-resin to immobilize ^227Ac and ^227Th as described in WO0040275. The product concentrate, i.e., dissolved ^223RaCl2 was tested for radionuclide purity by gamma spectroscopy before further use. A concentrate of the ^223Ra in NaCl and Na Citrate was sent sterile production. Isotonicity, pH, and activity concentration were adjusted; a sample kept aside for pathogen and pyrogen testing, and the final product was filled in sterile vials that were subsequently capped with a sealed rubber membrane penetrable to syringes. The vials were put into lead containers and shipped to the hospitals.
The effect of the radium-223 on neutrophil cell fractions, platelets, white-blood-cell count and Heamoglobin were monitored to give a wide ranging measure of haematological toxicity. […] The results were expressed as the number of patients in the study showing a particular level of toxicity on the CTC Toxicity Grade scale and are set out in Table 6 below.

[1] = Multiple dosing 2 × 125 kBq/kg, n = 3
[2] = Multiple dosing 5 × 50 kBq/kg, n = 3

SMILES: [223Ra] [^223Ra, radium-223]
- Haemoglobin, CTC Grade 0: number of patients [1]: 0
- Haemoglobin, CTC Grade 1: number of patients [1]: 1
- Haemoglobin, CTC Grade 2: number of patients [1]: 2
- Neutrophile, CTC Grade 0: number of patients [1]: 3
- Neutrophile, CTC Grade 1: number of patients [1]: 0
- Neutrophile, CTC Grade 2: number of patients [1]: 0
- Neutrophile, CTC Grade 3: number of patients [1]: 0
- Platelets, CTC Grade 0: number of patients [1]: 3
- Platelets, CTC Grade 1: number of patients [1]: 0
- W B C, CTC Grade 0: number of patients [1]: 2
- W B C, CTC Grade 1: number of patients [1]: 0
- W B C, CTC Grade 2: number of patients [1]: 1
- W B C, CTC Grade 3: number of patients [1]: 0
- Haemoglobin, CTC Grade 0: number of patients [2]: 0
- Haemoglobin, CTC Grade 1: number of patients [2]: 2
- Haemoglobin, CTC Grade 2: number of patients [2]: 1
- Neutrophile, CTC Grade 0: number of patients [2]: 1
- Neutrophile, CTC Grade 1: number of patients [2]: 0
- Neutrophile, CTC Grade 2: number of patients [2]: 2
- Neutrophile, CTC Grade 3: number of patients [2]: 0
- Platelets, CTC Grade 0: number of patients [2]: 2
- Platelets, CTC Grade 1: number of patients [2]: 1
- W B C, CTC Grade 0: number of patients [2]: 1
- W B C, CTC Grade 1: number of patients [2]: 0
- W B C, CTC Grade 2: number of patients [2]: 2
- W B C, CTC Grade 3: number of patients [2]: 0
- Haemoglobin, CTC Grade 0: number of patients (Re-treatment, n = 2): 1
- Haemoglobin, CTC Grade 1: number of patients (Re-treatment, n = 2): 1
- Haemoglobin, CTC Grade 2: number of patients (Re-treatment, n = 2): 0
- Neutrophile, CTC Grade 0: number of patients (Re-treatment, n = 2): 2
- Neutrophile, CTC Grade 1: number of patients (Re-treatment, n = 2): 0
- Neutrophile, CTC Grade 2: number of patients (Re-treatment, n = 2): 0
- Neutrophile, CTC Grade 3: number of patients (Re-treatment, n = 2): 0
- Platelets, CTC Grade 0: number of patients (Re-treatment, n = 2): 2
- Platelets, CTC Grade 1: number of patients (Re-treatment, n = 2): 0
- W B C, CTC Grade 0: number of patients (Re-treatment, n = 2): 2
- W B C, CTC Grade 1: number of patients (Re-treatment, n = 2): 0
- W B C, CTC Grade 2: number of patients (Re-treatment, n = 2): 0
- W B C, CTC Grade 3: number of patients (Re-treatment, n = 2): 0
- Haemoglobin, CTC Grade 0: number of patients (Single dose 46 kBq/kg, n = 5): 4
- Haemoglobin, CTC Grade 1: number of patients (Single dose 46 kBq/kg, n = 5): 0
- Haemoglobin, CTC Grade 2: number of patients (Single dose 46 kBq/kg, n = 5): 1
- Neutrophile, CTC Grade 0: number of patients (Single dose 46 kBq/kg, n = 5): 4
- Neutrophile, CTC Grade 1: number of patients (Single dose 46 kBq/kg, n = 5): 0
- Neutrophile, CTC Grade 2: number of patients (Single dose 46 kBq/kg, n = 5): 1
- Neutrophile, CTC Grade 3: number of patients (Single dose 46 kBq/kg, n = 5): 0
- Platelets, CTC Grade 0: number of patients (Single dose 46 kBq/kg, n = 5): 5
- Platelets, CTC Grade 1: number of patients (Single dose 46 kBq/kg, n = 5): 0
- W B C, CTC Grade 0: number of patients (Single dose 46 kBq/kg, n = 5): 4
- W B C, CTC Grade 1: number of patients (Single dose 46 kBq/kg, n = 5): 0
- W B C, CTC Grade 2: number of patients (Single dose 46 kBq/kg, n = 5): 1
- W B C, CTC Grade 3: number of patients (Single dose 46 kBq/kg, n = 5): 0
- Haemoglobin, CTC Grade 0: number of patients (Single dose 93 kBq/kg, n = 5): 2
- Haemoglobin, CTC Grade 1: number of patients (Single dose 93 kBq/kg, n = 5): 2
- Haemoglobin, CTC Grade 2: number of patients (Single dose 93 kBq/kg, n = 5): 1
- Neutrophile, CTC Grade 0: number of patients (Single dose 93 kBq/kg, n = 5): 3
- Neutrophile, CTC Grade 1: number of patients (Single dose 93 kBq/kg, n = 5): 1
- Neutrophile, CTC Grade 2: number of patients (Single dose 93 kBq/kg, n = 5): 1
- Neutrophile, CTC Grade 3: number of patients (Single dose 93 kBq/kg, n = 5): 0
- Platelets, CTC Grade 0: number of patients (Single dose 93 kBq/kg, n = 5): 5
- Platelets, CTC Grade 1: number of patients (Single dose 93 kBq/kg, n = 5): 0
- W B C, CTC Grade 0: number of patients (Single dose 93 kBq/kg, n = 5): 4
- W B C, CTC Grade 1: number of patients (Single dose 93 kBq/kg, n = 5): 0
- W B C, CTC Grade 2: number of patients (Single dose 93 kBq/kg, n = 5): 1
- W B C, CTC Grade 3: number of patients (Single dose 93 kBq/kg, n = 5): 0
- Haemoglobin, CTC Grade 0: number of patients (Single dose 163 kBq/kg, n = 5): 4
- Haemoglobin, CTC Grade 1: number of patients (Single dose 163 kBq/kg, n = 5): 0
- Haemoglobin, CTC Grade 2: number of patients (Single dose 163 kBq/kg, n = 5): 1
- Neutrophile, CTC Grade 0: number of patients (Single dose 163 kBq/kg, n = 5): 3
- Neutrophile, CTC Grade 1: number of patients (Single dose 163 kBq/kg, n = 5): 0
- Neutrophile, CTC Grade 2: number of patients (Single dose 163 kBq/kg, n = 5): 1
- Neutrophile, CTC Grade 3: number of patients (Single dose 163 kBq/kg, n = 5): 1
- Platelets, CTC Grade 0: number of patients (Single dose 163 kBq/kg, n = 5): 4
- Platelets, CTC Grade 1: number of patients (Single dose 163 kBq/kg, n = 5): 1
- W B C, CTC Grade 0: number of patients (Single dose 163 kBq/kg, n = 5): 3
- W B C, CTC Grade 1: number of patients (Single dose 163 kBq/kg, n = 5): 0
- W B C, CTC Grade 2: number of patients (Single dose 163 kBq/kg, n = 5): 1
- W B C, CTC Grade 3: number of patients (Single dose 163 kBq/kg, n = 5): 1
- Haemoglobin, CTC Grade 0: number of patients (Single dose 213 kBq/kg, n = 5): 2
- Haemoglobin, CTC Grade 1: number of patients (Single dose 213 kBq/kg, n = 5): 2
- Haemoglobin, CTC Grade 2: number of patients (Single dose 213 kBq/kg, n = 5): 1
- Neutrophile, CTC Grade 0: number of patients (Single dose 213 kBq/kg, n = 5): 2
- Neutrophile, CTC Grade 1: number of patients (Single dose 213 kBq/kg, n = 5): 1
- Neutrophile, CTC Grade 2: number of patients (Single dose 213 kBq/kg, n = 5): 2
- Neutrophile, CTC Grade 3: number of patients (Single dose 213 kBq/kg, n = 5): 0
- Platelets, CTC Grade 0: number of patients (Single dose 213 kBq/kg, n = 5): 5
- Platelets, CTC Grade 1: number of patients (Single dose 213 kBq/kg, n = 5): 0
- W B C, CTC Grade 0: number of patients (Single dose 213 kBq/kg, n = 5): 2
- W B C, CTC Grade 1: number of patients (Single dose 213 kBq/kg, n = 5): 0
- W B C, CTC Grade 2: number of patients (Single dose 213 kBq/kg, n = 5): 2
- W B C, CTC Grade 3: number of patients (Single dose 213 kBq/kg, n = 5): 1
- Haemoglobin, CTC Grade 0: number of patients (Single dose 250 kBq/kg, n = 5): 2
- Haemoglobin, CTC Grade 1: number of patients (Single dose 250 kBq/kg, n = 5): 3
- Haemoglobin, CTC Grade 2: number of patients (Single dose 250 kBq/kg, n = 5): 0
- Neutrophile, CTC Grade 0: number of patients (Single dose 250 kBq/kg, n = 5): 2
- Neutrophile, CTC Grade 1: number of patients (Single dose 250 kBq/kg, n = 5): 0
- Neutrophile, CTC Grade 2: number of patients (Single dose 250 kBq/kg, n = 5): 2
- Neutrophile, CTC Grade 3: number of patients (Single dose 250 kBq/kg, n = 5): 1
- Platelets, CTC Grade 0: number of patients (Single dose 250 kBq/kg, n = 5): 2
- Platelets, CTC Grade 1: number of patients (Single dose 250 kBq/kg, n = 5): 3
- W B C, CTC Grade 0: number of patients (Single dose 250 kBq/kg, n = 5): 2
- W B C, CTC Grade 1: number of patients (Single dose 250 kBq/kg, n = 5): 0
- W B C, CTC Grade 2: number of patients (Single dose 250 kBq/kg, n = 5): 2
- W B C, CTC Grade 3: number of patients (Single dose 250 kBq/kg, n = 5): 1
- Reversible diarrhoea, grades 1 and 2, share of patients (all dose groups, total): approximately 50%
- Dose-limiting toxicity (dose escalating part, single dose 46 to 250 kBq/kg): not observed
- Thrombocytes, toxicity grade (even at the two highest dose levels): 1 grade
- Vomiting, number of patients (highest dose group): four
- Nausea, number of patients (highest dose level): four
- Neutropenia of maximum grade 3, number of patients (single injection trial): two
- Reversible myelosuppression, nadir after injection (single injection, recovery during the follow-up period): 2-3 weeks
- Additional toxicity related to the repetition of the treatment (three patients in the 50×5 schedule): did not experience any additional toxicity
